Activity calls are given as the source filed them. No cut-off for these calls is given here. Non-standard residues stand in square brackets, D forms with d. Residues, ends and D or L forms follow the SMILES beside them. Ala(7-OPO3H2-coumarin-4-yl) = N[C@@H](Cc1cc(=O)oc2cc(OP(=O)(O)O)ccc12)C(=O)O

Test [1] deals with T1, Tyrosine-protein phosphatase non-receptor type 11 (Homo sapiens) (UniProt Q06124).
T1 sequence (whole entry): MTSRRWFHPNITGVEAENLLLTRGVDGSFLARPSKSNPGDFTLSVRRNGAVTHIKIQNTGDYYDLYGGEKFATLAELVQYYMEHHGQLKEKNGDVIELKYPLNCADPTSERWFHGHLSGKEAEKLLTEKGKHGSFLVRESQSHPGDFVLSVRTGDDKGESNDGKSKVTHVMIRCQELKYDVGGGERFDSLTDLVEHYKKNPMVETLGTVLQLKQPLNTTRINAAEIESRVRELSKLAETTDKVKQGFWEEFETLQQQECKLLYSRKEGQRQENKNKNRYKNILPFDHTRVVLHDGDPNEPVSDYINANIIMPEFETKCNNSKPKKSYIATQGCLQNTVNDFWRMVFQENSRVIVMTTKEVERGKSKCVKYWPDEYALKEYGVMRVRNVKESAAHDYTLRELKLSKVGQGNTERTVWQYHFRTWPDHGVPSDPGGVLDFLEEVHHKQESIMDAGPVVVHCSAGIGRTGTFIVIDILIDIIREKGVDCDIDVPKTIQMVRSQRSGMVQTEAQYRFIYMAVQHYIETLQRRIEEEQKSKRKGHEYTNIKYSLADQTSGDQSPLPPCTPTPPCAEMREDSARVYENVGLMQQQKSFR
Nature of the test: Substrate activity at SHP2 (unknown origin) expressed in Escherichia coli BL21 (DE3) incubated for 60 mins by fluorescence based assay.

For test [2], the target named is Receptor-type tyrosine-protein phosphatase mu (Homo sapiens) (UniProt P28827). The experiment in a line: Substrate activity at PTPmu (unknown origin) expressed in Escherichia coli BL21 (DE3) incubated for 60 mins by fluorescence based assay.
Sequence of Receptor-type tyrosine-protein phosphatase mu (Homo sapiens) (P28827 whole entry): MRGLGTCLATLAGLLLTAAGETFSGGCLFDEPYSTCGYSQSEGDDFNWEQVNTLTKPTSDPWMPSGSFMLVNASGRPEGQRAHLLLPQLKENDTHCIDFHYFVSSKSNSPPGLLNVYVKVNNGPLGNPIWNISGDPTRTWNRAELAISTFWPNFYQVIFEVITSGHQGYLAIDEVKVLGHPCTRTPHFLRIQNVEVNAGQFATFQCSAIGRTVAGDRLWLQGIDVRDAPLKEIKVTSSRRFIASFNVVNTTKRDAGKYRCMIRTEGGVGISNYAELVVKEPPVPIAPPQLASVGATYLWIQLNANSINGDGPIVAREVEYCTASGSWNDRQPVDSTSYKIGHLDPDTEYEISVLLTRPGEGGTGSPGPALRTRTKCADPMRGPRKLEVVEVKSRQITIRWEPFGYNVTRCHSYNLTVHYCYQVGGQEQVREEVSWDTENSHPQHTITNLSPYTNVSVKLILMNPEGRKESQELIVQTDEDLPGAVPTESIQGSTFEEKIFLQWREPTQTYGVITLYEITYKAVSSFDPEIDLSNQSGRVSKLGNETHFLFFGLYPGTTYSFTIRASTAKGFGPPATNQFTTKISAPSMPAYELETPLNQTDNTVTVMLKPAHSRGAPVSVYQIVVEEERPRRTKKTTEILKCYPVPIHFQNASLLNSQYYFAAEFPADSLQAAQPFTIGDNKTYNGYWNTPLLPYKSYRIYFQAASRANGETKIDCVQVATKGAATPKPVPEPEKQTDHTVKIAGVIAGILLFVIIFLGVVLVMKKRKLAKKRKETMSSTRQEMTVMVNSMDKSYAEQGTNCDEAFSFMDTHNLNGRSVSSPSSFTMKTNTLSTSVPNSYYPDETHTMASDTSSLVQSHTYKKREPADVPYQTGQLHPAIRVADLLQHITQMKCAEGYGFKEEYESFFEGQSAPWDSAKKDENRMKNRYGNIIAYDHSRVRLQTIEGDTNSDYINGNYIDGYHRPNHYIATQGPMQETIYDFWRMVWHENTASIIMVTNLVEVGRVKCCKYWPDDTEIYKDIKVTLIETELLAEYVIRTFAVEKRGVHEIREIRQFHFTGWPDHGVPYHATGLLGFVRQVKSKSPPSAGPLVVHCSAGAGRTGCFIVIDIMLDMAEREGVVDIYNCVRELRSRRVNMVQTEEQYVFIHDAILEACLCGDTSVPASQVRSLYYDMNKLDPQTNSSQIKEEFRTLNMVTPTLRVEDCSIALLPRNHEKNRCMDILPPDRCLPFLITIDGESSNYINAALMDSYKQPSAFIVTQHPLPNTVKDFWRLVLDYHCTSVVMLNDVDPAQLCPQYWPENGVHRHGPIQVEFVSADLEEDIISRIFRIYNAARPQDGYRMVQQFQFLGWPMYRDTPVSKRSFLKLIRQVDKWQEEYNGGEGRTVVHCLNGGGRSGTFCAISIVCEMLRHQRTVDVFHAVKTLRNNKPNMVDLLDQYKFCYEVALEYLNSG
The target in test [3] is T2, Tyrosine-protein phosphatase non-receptor type 22 (Homo sapiens) (UniProt Q9Y2R2).
T2 sequence (whole entry): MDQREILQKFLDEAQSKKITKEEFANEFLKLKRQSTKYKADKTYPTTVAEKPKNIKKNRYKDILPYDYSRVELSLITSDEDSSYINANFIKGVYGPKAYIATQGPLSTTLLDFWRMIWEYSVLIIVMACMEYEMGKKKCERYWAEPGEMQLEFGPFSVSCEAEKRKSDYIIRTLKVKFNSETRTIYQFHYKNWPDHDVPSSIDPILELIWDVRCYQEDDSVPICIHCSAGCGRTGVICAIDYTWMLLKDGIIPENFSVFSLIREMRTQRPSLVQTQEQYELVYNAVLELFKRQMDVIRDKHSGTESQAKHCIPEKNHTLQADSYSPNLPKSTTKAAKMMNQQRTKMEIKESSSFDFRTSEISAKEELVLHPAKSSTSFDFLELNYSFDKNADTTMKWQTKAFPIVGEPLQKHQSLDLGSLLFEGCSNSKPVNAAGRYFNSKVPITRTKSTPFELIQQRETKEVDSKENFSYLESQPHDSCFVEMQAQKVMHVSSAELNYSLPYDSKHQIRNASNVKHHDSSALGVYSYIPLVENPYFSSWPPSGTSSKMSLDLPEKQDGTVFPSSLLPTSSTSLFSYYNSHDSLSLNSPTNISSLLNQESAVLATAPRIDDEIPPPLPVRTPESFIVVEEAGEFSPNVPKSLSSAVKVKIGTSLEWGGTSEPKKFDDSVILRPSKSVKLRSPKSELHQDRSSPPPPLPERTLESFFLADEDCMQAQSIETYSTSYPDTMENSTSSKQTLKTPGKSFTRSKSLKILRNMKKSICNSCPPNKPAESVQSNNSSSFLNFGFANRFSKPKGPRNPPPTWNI
Nature of the test: Substrate activity at LYP (unknown origin) expressed in Escherichia coli BL21 (DE3) incubated for 60 mins by fluorescence based assay.

The target in test [4] is T3, Tyrosine-protein phosphatase non-receptor type 7 (Homo sapiens) (UniProt P35236).
T3 sequence (whole entry): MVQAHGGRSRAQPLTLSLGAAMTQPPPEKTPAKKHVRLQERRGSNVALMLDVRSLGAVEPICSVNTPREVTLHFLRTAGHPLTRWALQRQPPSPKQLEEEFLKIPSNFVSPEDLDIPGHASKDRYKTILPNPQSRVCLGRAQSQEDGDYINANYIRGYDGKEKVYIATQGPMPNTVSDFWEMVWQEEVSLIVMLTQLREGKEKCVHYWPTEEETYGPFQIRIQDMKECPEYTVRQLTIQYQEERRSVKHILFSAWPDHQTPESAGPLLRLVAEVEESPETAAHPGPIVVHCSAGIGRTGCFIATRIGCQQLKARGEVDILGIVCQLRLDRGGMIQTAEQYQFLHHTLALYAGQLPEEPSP
Nature of the test: Substrate activity at HEPTP (unknown origin) expressed in Escherichia coli BL21 (DE3) incubated for 60 mins by fluorescence based assay.

Test [5] has as its target T4, Tyrosine-protein phosphatase non-receptor type 4 (Homo sapiens) (UniProt P29074).
T4 sequence (whole entry): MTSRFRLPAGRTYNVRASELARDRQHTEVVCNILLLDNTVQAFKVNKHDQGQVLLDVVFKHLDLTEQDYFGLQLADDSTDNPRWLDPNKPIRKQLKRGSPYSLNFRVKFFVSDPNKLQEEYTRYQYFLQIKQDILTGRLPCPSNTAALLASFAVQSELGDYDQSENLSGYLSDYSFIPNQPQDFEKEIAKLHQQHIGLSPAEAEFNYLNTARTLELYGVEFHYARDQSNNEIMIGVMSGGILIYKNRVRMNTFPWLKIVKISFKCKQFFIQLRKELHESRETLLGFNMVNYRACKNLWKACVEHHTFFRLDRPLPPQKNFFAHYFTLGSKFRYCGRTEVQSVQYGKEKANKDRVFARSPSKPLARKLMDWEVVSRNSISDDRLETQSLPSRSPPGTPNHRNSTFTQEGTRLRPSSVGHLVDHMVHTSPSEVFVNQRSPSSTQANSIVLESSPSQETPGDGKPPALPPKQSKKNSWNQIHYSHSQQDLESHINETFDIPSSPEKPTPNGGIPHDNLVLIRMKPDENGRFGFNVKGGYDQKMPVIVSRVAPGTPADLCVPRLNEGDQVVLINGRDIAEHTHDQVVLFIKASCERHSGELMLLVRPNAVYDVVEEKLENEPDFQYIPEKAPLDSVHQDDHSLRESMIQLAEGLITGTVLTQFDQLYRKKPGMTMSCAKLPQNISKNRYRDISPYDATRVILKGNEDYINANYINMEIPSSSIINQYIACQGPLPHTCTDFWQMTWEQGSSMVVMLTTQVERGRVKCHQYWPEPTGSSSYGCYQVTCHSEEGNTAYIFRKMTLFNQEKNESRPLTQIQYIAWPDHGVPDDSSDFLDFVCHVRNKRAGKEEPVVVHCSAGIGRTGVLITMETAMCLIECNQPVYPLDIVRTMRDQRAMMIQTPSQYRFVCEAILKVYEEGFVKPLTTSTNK
Nature of the test: Substrate activity at MEG1 (unknown origin) expressed in Escherichia coli BL21 (DE3) incubated for 60 mins by fluorescence based assay.

With `CC[C@H](C)[C@H](NC(=O)[C@@H](NC(=O)[C@H](CC(=O)O)NC(=O)[C@H](CC(=O)O)NC(C)=O)[C@@H](C)O)C(=O)N[C@@H](Cc1cc(=O)oc2cc(OP(=O)(O)O)ccc12)C(=O)N[C@@H](CC(=O)O)C(=O)N[C@H](C(=O)N[C@@H](CC(C)C)C(=O)N[C@@H](CC(=O)O)C(N)=O)C(C)C` (Ac-DDTI[Ala(7-OPO3H2-coumarin-4-yl)]DVLD-NH2), the result in test [1] and in test [3] was Active. The result in test [2], in test [4] and in test [5] was inactive.
In the case of `CC[C@H](C)[C@H](NC(=O)[C@@H](NC(=O)[C@H](CC(=O)O)NC(=O)[C@H](CC(=O)O)NC(C)=O)[C@@H](C)O)C(=O)N[C@@H](Cc1cc(=O)oc2cc(OP(=O)(O)O)ccc12)C(=O)N[C@H](C(=O)N[C@H](C(=O)N[C@@H](CC(C)C)C(=O)N[C@@H](CC(=O)O)C(N)=O)C(C)C)[C@@H](C)O` (Ac-DDTI[Ala(7-OPO3H2-coumarin-4-yl)]TVLD-NH2), the outcome in test [1] was Active. Besides, the result in test [2] was inactive.
For `CC[C@H](C)[C@H](NC(=O)[C@@H](NC(=O)[C@H](CC(=O)O)NC(=O)[C@H](CC(=O)O)NC(C)=O)[C@@H](C)O)C(=O)N[C@@H](Cc1cc(=O)oc2cc(OP(=O)(O)O)ccc12)C(=O)N[C@H](C(=O)N[C@H](C(=O)N[C@@H](CC(C)C)C(=O)N[C@@H](CC(=O)O)C(N)=O)C(C)C)C(C)C` (Ac-DDTI[Ala(7-OPO3H2-coumarin-4-yl)]VVLD-NH2), the result in test [1], in test [3], in test [4] and in test [5] was Active. Further, the result in test [2] was inactive.
Turning to `CC[C@H](C)[C@H](NC(=O)[C@@H](NC(=O)[C@@H]1CCCN1C(=O)[C@H](CC(=O)O)NC(C)=O)[C@@H](C)O)C(=O)N[C@@H](Cc1cc(=O)oc2cc(OP(=O)(O)O)ccc12)C(=O)N1CCC[C@H]1C(=O)N[C@H](C(=O)N[C@@H](CC(C)C)C(=O)N[C@@H](CC(=O)O)C(N)=O)C(C)C` (Ac-DPTI[Ala(7-OPO3H2-coumarin-4-yl)]PVLD-NH2), in test [1], the outcome was Active. For the same molecule, the result in test [2] was inactive.
As to `CC[C@H](C)[C@H](NC(=O)[C@@H](NC(=O)[C@H](CO)NC(=O)[C@H](CC(=O)O)NC(C)=O)[C@@H](C)O)C(=O)N[C@@H](Cc1cc(=O)oc2cc(OP(=O)(O)O)ccc12)C(=O)N[C@@H](CC(=O)O)C(=O)N[C@H](C(=O)N[C@@H](CC(C)C)C(=O)N[C@@H](CC(=O)O)C(N)=O)C(C)C` (Ac-DSTI[Ala(7-OPO3H2-coumarin-4-yl)]DVLD-NH2), the result in test [1] was Active. Moreover, the result in test [2] was inactive.
Taken in the same sequence, the figures for `CC[C@H](C)[C@H](NC(=O)[C@@H](NC(=O)[C@H](CO)NC(=O)[C@H](CC(=O)O)NC(C)=O)[C@@H](C)O)C(=O)N[C@@H](Cc1cc(=O)oc2cc(OP(=O)(O)O)ccc12)C(=O)N[C@H](C(=O)N[C@H](C(=O)N[C@@H](CC(C)C)C(=O)N[C@@H](CC(=O)O)C(N)=O)C(C)C)[C@@H](C)O` (Ac-DSTI[Ala(7-OPO3H2-coumarin-4-yl)]TVLD-NH2) were “Active” and “inactive”.
For `CC[C@H](C)[C@H](NC(=O)[C@@H](NC(=O)[C@H](CO)NC(=O)[C@H](CC(=O)O)NC(C)=O)[C@@H](C)O)C(=O)N[C@@H](Cc1cc(=O)oc2cc(OP(=O)(O)O)ccc12)C(=O)N[C@H](C(=O)N[C@H](C(=O)N[C@@H](CC(C)C)C(=O)N[C@@H](CC(=O)O)C(N)=O)C(C)C)C(C)C` (Ac-DSTI[Ala(7-OPO3H2-coumarin-4-yl)]VVLD-NH2) the same measures were “Active” and “inactive”.

These data come from ChEMBL document CHEMBL4433268, “Rational design of a SHP-2 targeted, fluorogenic peptide substrate” (Bioorg Med Chem Lett, 2019).
